The results in this text go back to patent publication US8629143B2, “Potassium channel modulators” (AbbVie Inc., priority 2009, dated 2014).

The experiment concerns the target T1, KCNQ 2/3 channels (HEK293 cells stably expressing human KCNQ2 and KCNQ3 subunits) (Homo sapiens, UniProt O43525+O43526).
T1 construct: expressed in transfected cells; host or cells: HEK293
Nature of the experiment: KCNQ2/3 channel activation, thallium flux FLIPR assay with BTC-AM dye. Format: cell-based. The note with it: for Emax: HEK293, maximum response relative to the response produced by 10 μM retigabine (set at 100%), read-out: Max. %; for EC50: HEK293 cells expressing human KCNQ2 and KCNQ3, thallium flux, FLIPR. On the procedure:
The following example describes the assay that can be used to identify compounds that activate KCNQ 2/3 channels.
HEK293 cells stably expressing human KCNQ2 and KCNQ3 subunits were seeded in 96-well, black-walled, clear-bottomed, poly-D-lysine coated plates (BD Biosciences, Bedford, Mass.) at a density of 1×10^5 cells per well 24 hours before the assay. On the assay day, BTC-AM dye (Invitrogen, Carlsbad, Calif.) was loaded into the cells by replacing the cell culture medium with 55 μL/well of 3 μg/mL dye in DPBS. Dye loading was allowed to proceed for 2 hours at room temperature and then cells were washed twice with 50 μL/well of assay buffer (in mM: 10 HEPES pH 7.3, 5 glucose, 140 Na-gluconate, 2.5 K-gluconate, 3.6 Ca-gluconate, 2 MgSO4, 0.1 Ouabain) to remove unloaded dye. Cells were incubated in 50 μL of assay buffer before loading onto a FLIPR system (Molecular Devices, Sunnyvale, Calif.). Various concentrations of compounds to be assayed were added to the cells in 50 μL of assay buffer and incubated for 4 minutes. The fluorescence signal was initiated by adding 100 μL of assay buffer containing 6 mM TlNO3 and 10 mM K2SO4. Fluors were excited using the 488-nm line of an argon laser and emission was filtered using a 540±30 nm bandpass filter. Fluorescent signals were recorded for 3 minutes. Sums of the responses over basal responses were plotted versus concentrations of test compounds to obtain an EC50 value. The maximum response for each test compound was determined relative to the response produced by 10 μM retigabine. The maximum response of retigabine at 10 μM was set at 100%.

By EC50 is commonly meant the concentration that produces a half-maximal response. Read a low EC50 as higher potency in that assay. As for `COC(=O)c1ccc(-c2nn(NC(=O)C[C@H]3C[C@@H]4CC[C@H]3C4)c(=O)c3ccccc23)cc1` (racemic) [Example 79, (±)-methyl 4-(3-{[exo-bicyclo[2.2.1]hept-2-ylacetyl]amino}-4-oxo-3,4-dihydrophthalazin-1-yl)benzoate], the Emax was 144% and the EC50 is below 100 nM.

For the molecule `Cc1ccc(CC(=O)Nn2nc(-c3ccc(Cl)cc3)c3ccccc3c2=O)cc1` [Example 107, N-[4-(4-chlorophenyl)-1-oxophthalazin-2(1H)-yl]-2-(4-methylphenyl)acetamide], the Emax came out at 98% and the EC50 was in the range of 100 to 500 nM.

Regarding `O=C(CC1(c2ccccc2)CCCC1)Nn1nc(-c2ccc(Cl)cc2)c2ccccc2c1=O` [Example 119, N-[4-(4-chlorophenyl)-1-oxophthalazin-2(1H)-yl]-2-(1-phenylcyclopentyl)acetamide], the Emax was determined as 12% and the EC50 was above 10000 nM.

Consider `O=C(Cc1cccc(OC(F)(F)F)c1)Nn1nc(-c2ccc(Cl)cc2)c2ccccc2c1=O` [Example 98, N-[4-(4-chlorophenyl)-1-oxophthalazin-2(1H)-yl]-2-[3-(trifluoromethoxy)phenyl]acetamide], for which the Emax turned out to be 80% and the EC50 lay in the range of 500 to 1000 nM.

`CC(C)c1ccc(-c2nn(NC(=O)C[C@H]3C[C@@H]4CC[C@H]3C4)c(=O)c3ccccc23)cc1` (racemic) [Example 168, (±)-2-(exo-bicyclo[2.2.1]hept-2-yl)-N-[4-(4-isopropylphenyl)-1-oxophthalazin-2(1H)-yl]acetamide]: the Emax came to 134% and the EC50 was 100 to 500 nM.

Consider `O=C(Cc1cc(F)cc(F)c1)Nn1nc(-c2cccc(Cl)c2)c2ccccc2c1=O` [Example 128, N-[4-(3-chlorophenyl)-1-oxophthalazin-2(1H)-yl]-2-(3,5-difluorophenyl)acetamide], for which the Emax came out at 140% and the EC50 fell in the range of 100 to 500 nM.

On to `O=C(CC12CC3CC(CC(C3)C1)C2)Nn1nc(C2CC2)c2ccccc2c1=O` [Example 24, 2-(1-adamantyl)-N-(4-cyclopropyl-1-oxophthalazin-2(1H)-yl)acetamide], for which the Emax is 235% and the EC50 is below 100 nM.

As to `Cc1ccc(-c2nn(NC(=O)Cc3ccc(Cl)cc3)c(=O)c3ccccc23)cc1` [Example 135, 2-(4-chlorophenyl)-N-[4-(4-methylphenyl)-1-oxophthalazin-2(1H)-yl]acetamide], the Emax stood at 95% and the EC50 is 100 to 500 nM.

Regarding `O=C(CC1CC2CCC1C2)Nn1nc(-c2cccc(Cl)c2)c2ccccc2c1=O` (racemic) [Example 125, (±)-2-(exo-bicyclo[2.2.1]hept-2-yl)-N-[4-(3-chlorophenyl)-1-oxophthalazin-2(1H)-yl]acetamide], the Emax came to 150% and the EC50 was below 100 nM.

In the case of `O=C(C[C@@H]1C[C@@H]2C=C[C@H]1C2)Nn1nc(-c2ccc(F)cc2)c2ccccc2c1=O` [Example 130, 2-[(1S,2S,4S)-bicyclo[2.2.1]hept-5-en-2-yl]-N-[4-(4-fluorophenyl)-1-oxophthalazin-2(1H)-yl]acetamide], the Emax is 156% and the EC50 was below 100 nM.

In the case of `O=C(Cc1cc(F)cc(F)c1)Nn1nc(C2CCCCC2)c2ccccc2c1=O` [Example 77, N-(4-cyclohexyl-1-oxophthalazin-2(1H)-yl)-2-(3,5-difluorophenyl)acetamide], the Emax stood at 145% and the EC50 is below 100 nM.

On to `O=C(CC12CC3CC(CC(C3)C1)C2)Nn1nc(C(F)(F)F)c2ccccc2c1=O` [Example 12, 2-(1-adamantyl)-N-[1-oxo-4-(trifluoromethyl)phthalazin-2(1H)-yl]acetamide], for which the Emax was 169% and the EC50 is 100 to 500 nM.

For `CC(C)c1nn(NC(=O)CC23CC4CC(CC(C4)C2)C3)c(=O)c2cc(C(F)(F)F)ccc12` [Example 173, 2-(adamantan-1-yl)-N-[4-isopropyl-1-oxo-7-(trifluoromethyl)phthalazin-2(1H)-yl]acetamide], the Emax is -12% and the EC50 is above 10000 nM.

Regarding `O=C(Cc1ccc(Cl)cc1)Nn1nc(C2CCCCC2)c2ccccc2c1=O` [Example 76, 2-(4-chlorophenyl)-N-(4-cyclohexyl-1-oxophthalazin-2(1H)-yl)acetamide], the Emax was determined as 157% and the EC50 lay within 100 to 500 nM.

`Cc1ccc(C)c(-c2nn(NC(=O)Cc3ccc(Cl)cc3)c(=O)c3ccccc23)c1` [Example 157, 2-(4-chlorophenyl)-N-[4-(2,5-dimethylphenyl)-1-oxophthalazin-2(1H)-yl]acetamide]: the Emax amounted to 155% and the EC50 fell in the range of 100 to 500 nM.

As to `COc1ccc(CC(=O)Nn2nc(-c3ccc(Cl)cc3)c3ccccc3c2=O)cc1` [Example 104, N-[4-(4-chlorophenyl)-1-oxophthalazin-2(1H)-yl]-2-(4-methoxyphenyl)acetamide], the Emax worked out at 97% and the EC50 fell in the range of 1000 to 10000 nM.

In the case of `Cc1nn(NC(=O)Cc2ccc(Cl)cc2)c(=O)c2ccccc12` [Example 28, 2-(4-chlorophenyl)-N-(4-methyl-1-oxophthalazin-2(1H)-yl)acetamide], the Emax was found to be 121% and the EC50 lay in the range of 1000 to 10000 nM.

With `O=C(Cc1cc(F)cc(F)c1)Nn1nc(C2CC2)c2ccccc2c1=O` [Example 23, N-(4-cyclopropyl-1-oxophthalazin-2(1H)-yl)-2-(3,5-difluorophenyl)acetamide], the Emax was 156% and the EC50 fell in the range of 500 to 1000 nM.

Turning to `O=C(CSC12CC3CC(CC(C3)C1)C2)Nn1nc(C(F)(F)F)c2ccccc2c1=O` [Example 192, 2-(adamantan-1-ylthio)-N-[1-oxo-4-(trifluoromethyl)phthalazin-2(1H)-yl]acetamide], the Emax stood at 155% and the EC50 is 100 to 500 nM.

Consider `Cc1ccc(C)c(-c2nn(NC(=O)Cc3cc(F)cc(F)c3)c(=O)c3ccccc23)c1` [Example 158, 2-(3,5-difluorophenyl)-N-[4-(2,5-dimethylphenyl)-1-oxophthalazin-2(1H)-yl]acetamide], for which the Emax turned out to be 167% and the EC50 was in the range of 100 to 500 nM.

For `O=C(C[C@@H]1C[C@@H]2CC[C@H]1C2)Nn1nc(-c2ccc(F)cc2)c2ccccc2c1=O` [Example 129, 2-[(1S,2S,4R)-bicyclo[2.2.1]hept-2-yl]-N-[4-(4-fluorophenyl)-1-oxophthalazin-2(1H)-yl]acetamide], the Emax amounted to 143% and the EC50 is below 100 nM.

`O=C(Cc1ccc(Cl)cc1Cl)Nn1nc(-c2ccccc2)c2ccccc2c1=O` [Example 83, 2-(2,4-dichlorophenyl)-N-(1-oxo-4-phenylphthalazin-2(1H)-yl)acetamide]: the Emax worked out at 13% and the EC50 was above 10000 nM.

Regarding `O=C(C[C@H]1C[C@@H]2CC[C@H]1C2)Nn1nc(Cc2ccccc2)c2ccccc2c1=O` (racemic) [Example 141, (±)-N-(4-benzyl-1-oxophthalazin-2(1H)-yl)-2-(exo-bicyclo[2.2.1]hept-2-yl)acetamide], the Emax amounted to 130% and the EC50 was below 100 nM.

Consider `O=C(CC1CC2CCC1C2)Nn1nc(-c2ccc(Cl)cc2)c2c(F)ccc(F)c2c1=O` (racemic) [Example 184, (±)-2-(exo-bicyclo[2.2.1]hept-2-yl)-N-[4-(4-chlorophenyl)-5,8-difluoro-1-oxophthalazin-2(1H)-yl]acetamide], for which the Emax was determined as 154% and the EC50 was below 100 nM.

With `CC(C)c1nn(NC(=O)Cc2ccc(Cl)cc2)c(=O)c2ccccc12` [Example 1, 2-(4-chlorophenyl)-N-(4-isopropyl-1-oxophthalazin-2(1H)-yl)acetamide], the Emax was found to be 125% and the EC50 lay in the range of 100 to 500 nM.

In the case of `CC(C)(CC(=O)Nn1nc(C(F)(F)F)c2ccccc2c1=O)c1ccccc1` [Example 52, 3-methyl-N-[1-oxo-4-(trifluoromethyl)phthalazin-2(1H)-yl]-3-phenylbutanamide], the Emax is 116% and the EC50 lay within 100 to 500 nM.

Regarding `CC(C)(CC(=O)Nn1nc(-c2ccc(Br)cc2)c2ccccc2c1=O)c1ccccc1` [Example 85, N-[4-(4-bromophenyl)-1-oxophthalazin-2(1H)-yl]-3-methyl-3-phenylbutanamide], the Emax amounted to 117% and the EC50 was in the range of 100 to 500 nM.

For `CC(C)(CC(=O)Nn1nc(Cc2ccccc2)c2ccccc2c1=O)c1ccccc1` [Example 140, N-(4-benzyl-1-oxophthalazin-2(1H)-yl)-3-methyl-3-phenylbutanamide], the Emax is 126% and the EC50 is below 100 nM.

For `O=C(Cc1cc(F)cc(F)c1)Nn1nc(-c2ccccc2)c2c(c1=O)CCC2` [Example 188, 2-(3,5-difluorophenyl)-N-(1-oxo-4-phenyl-1,5,6,7-tetrahydro-2H-cyclopenta[d]pyridazin-2-yl)acetamide], the Emax amounted to 131% and the EC50 fell in the range of 1000 to 10000 nM.
